Measurements taken from patent publication US20260240851A1, “Treatment of Parkinson's Disease in a Patient Using a Glucocerebrosidase Activator” (BIAL - R&D Investments, S.A., priority 2023, published 2026).

What was measured:
[1] = LTI-291-004: fMRI, FDG-PET and functional outcome measures; type: in vivo, human
Experimental: (§1) This study was a Phase 1B, randomized, double-blind, placebo-controlled, multiple oral dose study of Compound A in 14 subjects (aged 51 to 81 years) with GBA-PD. The objectives of this study were to investigate the safety, tolerability, and PK of multiple once-daily oral administration of Compound A and to explore the accompanying pharmacodynamic changes. Subjects received once-daily oral doses of 10 mg (n=6) or 60 mg (2×30 mg capsules) (n=6) Compound A or placebo (n=2) for 28 consecutive days. PK samples were measured once on Day 7 and Day 14 and 4 times after the last dose on Day 28. Plasma concentrations were summarized at each time point, and no PK parameters were estimated. The PD evaluations included fMRI measures; FDG-PET to determine the metabolic rate of glucose in specific regions of the brain; and functional outcome measures (MDS-UPDRS Part III and the MMSE). GluCer, GluSph, and LacCer and other sphingolipids were measured in PBMCs and plasma as biomarkers of pharmacological effect.

[2] = LTI-291-004: safety and tolerability; type: in vivo, human
Experimental: as §1

GCase = assay: Phase 2 study: GCase activity in whole blood (dried blood spot, FIA-MS/MS); type: in vivo, human; details: vs placebo
Experimental: In addition, the PD biomarkers and GCase activity in whole blood samples are measured at baseline and week 78 (preferably baseline and weeks 4, 26, 52 and 78). This may include biomarkers of lysosomal activity (e.g., glucosylsphingosine (GluSph) and/or glucosylceramide (GluCer)). Methods of measuring lysosomal activity (e.g., GluSph and/or GluCer) are described above. A method of measuring GCase activity is described below. Magnetic resonance imagining (MRI) scans are performed at baseline and week 78 for a cohort of GBA-PD subjects.
The preferred method of measuring GCase activity in whole blood is described below, and also in Totorelli, 2016, which is incorporated herein by reference:
A 5-plex cocktail assay for GCase, acid a-glucosidase (GAA), galactocerebrosidase (GALC), a-galactosidase A (GLA), and a-L-iduronidase (IDUA) activity is prepared. Vials containing the substrate (S) and internal standards (IS) for GCase and GAA are reconstituted with methanol and transferred to the GALC S+IS vial followed by evaporation. The GLA S+IS vial is reconstituted with 1.8 mL of 96 g/L sodium taurocholate in water and then transferred to the dry GALC S+IS vial, which is then heated to 60° C. to dissolve all solids. […]

[3] = after 6 days of dosing with 60 mg, Madopar portion
Experimental: This was a Phase 1, non-randomized, open-label, 2-cohort, cross-over, DDI study in healthy male and female subjects.
In Cohort 2, a single oral dose 100 mg/25 mg levodopa-benserazide (Madopar®) IR was administered alone on Day 1.

## CCCCCO[C@H]1CC[C@H](NC(=O)c2cnn3c(C)cc(C)nc23)CC1 [Compound A, 5,7-dimethyl-N-((1S*,4S)-4-(pentyloxy)cyclohexyl)pyrazolo[1,5-a]pyrimidine-3-carboxamide]
[1]; 10 or 60 mg daily for 28 days, differences not statistically significant
  default mode network (DMN) assessed by fMRI: improved the default mode network
[1]; Day 28 vs Day -1, all subjects
  MDS-UPDRS III and MMSE scores: unchanged
[2]; 10 or 60 mg daily for 28 days
  deaths, SAEs, severe AEs: No deaths, other SAEs, or severe AEs
[2]; in vivo
  relatedness of AEs to study treatment: None of the AEs were considered related to the study treatment
  vital signs, laboratory safety assessments, physical examinations, ECG parameters: no clinically significant safety observations
GCase
  Mean change in GCase activity in whole blood samples: higher
[3]
  steady state concentrations of Compound A: appeared not to have been reached
